{"source": "patent US5169944A", "about": "“Methods and compositions for the enteral administration of hepatobiliary MRI contrast agents” (Board of Regents of the University of Washington, priority 1991, dated 1992)", "key": {"liver": {"test_system": "liver", "details": "cited from earlier work; for contrast enhancement: subsequent limited imaging experiments"}, "liver abscess": {"test_system": "liver abscess", "assay": "MRI enhancement in liver abscess rats: liver abscess", "assay_type": "in vivo, Sprague-Dawley rats"}, "normal liver parenchyma [1]": {"test_system": "normal liver parenchyma", "assay": "MRI enhancement in normal and liver abscess rats: normal liver parenchyma", "assay_type": "in vivo, Sprague-Dawley rats"}, "[2]": {"details": "rat, in vivo"}, "subcutaneous abscesses": {"test_system": "subcutaneous abscesses", "assay": "MRI enhancement in liver abscess rats: subcutaneous abscesses", "assay_type": "in vivo, Sprague-Dawley rats", "details": "for enhancement of subcutaneous abscesses (in words): i.v."}, "[3]": {"test_system": "liver metastases (mammary adenocarcinoma R3230 AC)", "assay": "MRI enhancement in rats with liver metastases: tumor", "assay_type": "in vivo, Fischer 344 female rats", "details": "for visualization of tumor deposits: i.v.", "description": "The entire procedure was performed under sterile conditions. Four animals died within 48 hours following surgery."}, "[4]": {"test_system": "normal subcutaneous tissue", "assay": "MRI enhancement in liver abscess rats: normal subcutaneous tissue", "assay_type": "in vivo, Sprague-Dawley rats", "details": "for enhancement of normal subcutis (in words): i.v."}, "[5]": {"assay": "Deaths following the imaging experiment", "assay_type": "in vivo, Sprague-Dawley rats", "details": "5 rats per agent, i.v.; unclear whether due to contrast media or anesthesia", "description": "Pyrogenic liver abscesses were induced in Sprague-Dawley rats following the method of Weinsten, WM, 1975. Twelve female sprague-Dawley rats (250-300 g each) underwent midline laparotomy following intraperitoneal anesthesia with sodium pentobarbital (40-50 mg/kg), and a filtered bacterial inoculum of colonic contents was directly injected into the liver of each rat. Two animals died within 24 hours following surgery and were excluded from the study. The remaining 10 rats underwent MR imaging 4-6 days after surgery, as described below.\nThese studies were done at an estimated 1/10 of the LD50 of protoporphyrin (Jackson et al, 1985)."}, "[6]": {"details": "early work; cited from earlier work"}, "gall bladder": {"test_system": "gall bladder", "details": "i.v. 0.04 mmol/kg, 30 minutes"}, "Vx-2 tumor": {"test_system": "Vx-2 tumor", "assay": "MRI signal enhancement, Vx-2 carcinoma model: tumor", "assay_type": "in vivo, New Zealand White (NZW) rabbits", "details": "i.v. 0.04 mmol/kg, 30 minutes"}, "normal liver tissue [7]": {"test_system": "normal liver tissue", "details": "i.v. 0.04 mmol/kg, 30 minutes"}, "normal liver parenchyma [8]": {"test_system": "normal liver parenchyma", "method": "Imaging experiments were performed with a General Electric CSI-II 2.0 T (85.6 Mhz proton resonant frequency) chemical shift imaging spectrometer (GE Medical Systems, Fremont, Calif.). The proton imaging sequence used was that of a standard pin echo 2DFT sequence that employed a single 3 mm slice thickness with four phase cycled signal acquisitions. […] Coronal images were obtained of the rats+ abdomen and thorax using a TR of 160 msec and a TE of 16 msec. A specially designed 53 mm outer diameter (130 mm long) imaging coil of the low-pass birdcage resonantor design was employed with a balanced-matched tuning network for all images. […]\nSignal intensity was measured by region-of-interest (ROI) analysis both for normal liver parenchyma, liver lesions and a corn oil standard. […] Signal intensity was measured over the center of the hepatic abscesses. Signal intensities were also determined for normal subcutaneous tissue in the area of the thoracic wall and for subcutaneous abscesses located in the anterior abdominal wall in rats with liver abscesses. Measured signal intensities (SI) were normalized to the intensity of the corn oil standard for all pre- and postcontrast images. Signal intensity enhancement was calculated according to the formula: (SI postcontrast-SI precontrast)/SI precontrast. […]"}, "[9]": {"assay": "solubility and stability in hydrophilic and lipophilic solvents"}, "[10]": {"details": "in vitro"}, "normal liver tissue [11]": {"test_system": "normal liver tissue", "details": "gastric lavage, 0.05 mmol/kg Mn mesoporphyrin + […] mixed micelles, 4 hours"}}, "note": "Entries after “also recorded” stand apart in the source; their conditions may differ."}
{"compound": "O=C([O-])CN(CCN(CC(=O)[O-])CC(=O)[O-])CCN(CC(=O)[O-])C(COCc1ccccc1)C(=O)[O-].[Gd+3]", "note": "(stereo not drawn) [Gd-BOPTA]", "values": [{"measurement": "hepatic excretion and bile duct opacification", "setting": "liver; in vivo", "value": "undergoes hepatic excretion and opacifies the bile ducts"}]}
{"compound": "CNC[C@H](O)[C@@H](O)[C@H](O)[C@H](O)CO.CNC[C@H](O)[C@@H](O)[C@H](O)[C@H](O)CO.O=C([O-])CN(CCN(CC(=O)[O-])CC(=O)O)CCN(CC(=O)[O-])CC(=O)O.[Gd+3]", "note": "[Gd-DTPA, gadopentetate dimeglumine]", "values": [{"measurement": "contrast enhancement of normal liver and focal liver lesions", "setting": "liver; intravenous", "value": "nonselectively enhances either normal liver, focal liver lesions or both"}]}
{"compound": "O=S(=O)([O-])c1ccc(-c2c3nc(c(-c4ccc(S(=O)(=O)[O-])cc4)c4ccc([nH]4)c(-c4ccc(S(=O)(=O)[O-])cc4)c4nc(c(-c5ccc(S(=O)(=O)[O-])cc5)c5ccc2[nH]5)C=C4)C=C3)cc1.[Mn+4]", "note": "[Mn TPPS4, manganese tetrakis-(4-sulfonatophenyl)porphyrin, reference compound]", "values": [{"measurement": "contrast between normal and diseased tissue", "setting": "liver abscess; i.v.", "value": "enhanced both normal liver and abscesses, thus providing no improved contrast between normal and diseased tissue"}, {"measurement": "enhancement of liver abscess", "setting": "liver abscess; i.v. Mn TPPS4, 10 minutes post injection, p less than 0.05", "value": 63, "unit": "%"}, {"measurement": "enhancement of normal liver parenchyma", "setting": "normal liver parenchyma [1]; i.v. Mn TPPS4, 10 minutes post injection, p greater than 0.05", "value": 43, "unit": "%"}, {"measurement": "skin discoloration", "setting": "[2]", "value": "green discoloration of the skin"}, {"measurement": "enhancement of subcutaneous abscesses (in words)", "setting": "subcutaneous abscesses", "value": "enhanced both subcutis and subcutaneous abscesses"}, {"measurement": "enhancement of subcutaneous abscesses", "setting": "subcutaneous abscesses; i.v. Mn TPPS4, 60 minutes, p greater than 0.05", "value": 88, "unit": "%"}, {"measurement": "visualization of tumor deposits", "setting": "[3]", "value": "failed to help in distinguishing the site of the tumor deposits"}, {"measurement": "enhancement of liver and tumor / lesion discrimination", "setting": "[3]; i.v. Mn-TPPS4", "value": "enhanced both liver and tumor thus providing no discrimination of the lesion"}, {"measurement": "enhancement of normal subcutis (in words)", "setting": "[4]", "value": "enhanced both subcutis and subcutaneous abscesses"}, {"measurement": "enhancement of normal subcutaneous tissue", "setting": "[4]; i.v. Mn TPPS4, 60 minutes, p less than 0.05", "value": 56, "unit": "%"}, {"measurement": "death following the imaging experiment", "setting": "[5]", "value": "One rat"}]}
{"compound": "C=CC1=C(C)c2cc3[n-]c(cc4[n-]c(cc5nc(cc1n2)C(C)=C5C=C)c(C)c4CCC(=O)[O-])c(CCC(=O)[O-])c3C.[H+].[H+].[Mn+2]", "note": "[manganese protoporphyrin]", "values": [{"measurement": "contrast enhancement", "setting": "liver", "value": "caused hepatic and biliary contrast enhancement"}]}
{"compound": "C=CC1=C(C)c2cc3[nH]c(cc4nc(cc5[nH]c(cc1n2)c(C)c5CCC(=O)O)C(CCC(=O)O)=C4C)c(C)c3C=C", "note": "[protoporphyrin]", "values": [{"measurement": "T1 effects in the liver", "setting": "liver; early work", "value": "tissue specific T1(inversion time) effects were clearly demonstrated in the liver"}, {"measurement": "solubility", "setting": "[6]", "value": "poor solubility"}, {"measurement": "toxicity", "setting": "[6]", "value": "apparent high toxicity"}]}
{"compound": "manganese (III) mesoporphyrin [Mn mesoporphyrin]", "values": [{"measurement": "contrast enhancement of normal hepatic tissue", "setting": "liver; T1 weighted MRI, non-toxic doses", "value": "contrast enhancement of normal hepatic tissue leading to improved diagnostic visualization of tumors and abscesses"}, {"measurement": "enhancement of liver abscesses (in words)", "setting": "liver abscess; i.v., any time", "value": "not enhanced at any time"}, {"measurement": "liver enhancement", "setting": "normal liver parenchyma [1]; i.v. 0.035-0.045 mmol/kg, 10 minutes, p less than 0.01", "value": 43, "unit": "%"}, {"measurement": "prolonged enhancement of normal liver parenchyma", "setting": "normal liver parenchyma [1]; i.v., over the observation period of 60 min, significant", "value": "30-50%"}, {"measurement": "tumor-to-liver contrast", "setting": "liver metastases; gastric, 0.05 mmol/kg + […] mixed micelles, single observation vs control animal", "value": "significant increase of the tumor-to-liver contrast"}, {"measurement": "enhancement properties, oral vs intravenous", "setting": "liver metastases; tumor-to-liver contrast, oral administration", "value": "substantially equivalent to the properties established for intravenous administration"}, {"measurement": "enhancement of the gall bladder (MRI signal intensity)", "setting": "gall bladder", "value": "373+/-92.3%"}, {"measurement": "enhancement of subcutaneous abscesses (in words)", "setting": "subcutaneous abscesses", "value": "did not yield enhancement; also recorded: did not enhance either subcutis or subcutaneous abscesses"}, {"measurement": "enhancement of the tumor tissue (MRI signal intensity)", "setting": "Vx-2 tumor", "value": "12.7+/-12.1%"}, {"measurement": "statistical significance of tumor enhancement", "setting": "Vx-2 tumor", "value": "not statistically significant"}, {"measurement": "delayed tumor enhancement", "setting": "[3]; 24 and 48 hrs, n=3 rats", "value": "no delayed tumor enhancement was observed"}, {"measurement": "visualization of tumor deposits", "setting": "[3]", "value": "made visualization of tumor deposits extremely simple"}, {"measurement": "effect on signal intensity of metastases", "setting": "[3]; i.v. 0.035 mmol/kg, center and periphery of tumors, over 60 min, n=6 rats", "value": "did not significantly affect the signal intensity of metastases"}, {"measurement": "enhancement of the liver (MRI signal intensity)", "setting": "normal liver tissue [7]", "value": "89.6+/-17.5%"}, {"measurement": "increase of signal intensity of normal liver parenchyma over baseline", "setting": "normal liver parenchyma [8]; 24 and 48 hrs, n=3 rats, may be artificially high", "value": 30, "unit": "%"}, {"measurement": "maximum enhancement of normal liver parenchyma", "setting": "normal liver parenchyma [8]; i.v. 0.035 mmol/kg, over 60 min", "value": 70, "unit": "%"}, {"measurement": "enhancement of normal subcutis (in words)", "setting": "[4]", "value": "did not yield enhancement; also recorded: did not enhance either subcutis or subcutaneous abscesses"}, {"measurement": "solubility in K2PO4 / water-based buffer", "setting": "[9]", "value": "improved solubility in high pH solutions"}, {"measurement": "death following the imaging experiment", "setting": "[5]", "value": "one"}, {"measurement": "binding by cholestyramine", "setting": "[10]", "value": "cholestyramine binds Mn mesoporphyrin"}, {"measurement": "enhancement of normal liver tissue over baseline", "setting": "normal liver tissue [11]", "value": 65, "unit": "%"}]}
{"compound": "manganese uroporphyrin", "values": [{"measurement": "contrast enhancement", "setting": "liver", "value": "produced dramatic contrast effects in the kidneys and urine"}]}
